The test system of series [1] is Human immunodeficiency virus 1. Kind of series: Antiviral activity against HIV1 NL4-3 infected in human TZM-bl cells assessed as reduction in virus induced cytopathic effect measured after 2 days by luciferase gene expression assay. Type of series: functional, organism-based. The following applies: Human immunodeficiency virus 1, NL4-3, TZM-bl, 48 h.
A further series can be described thus: in vitro. The following applies: human, TZM-bl cells.
The subject of a further series is TZM. Kind of series: Cytotoxicity against in human TZM-bl cells assessed as reduction in cell viability measured after 2 days by CytoTox-Glo cytotoxicity assay. The following applies: 48 h.

Description for in vitro: Selectivity index, ratio of CC50 for human TZM-bl cells to EC50 for HIV1 NL4-3 infected in human TZM-bl cells

On to `COc1ccc(N(C)C(=O)[C@H](Cc2ccccc2)NC(=O)Cn2cc(-c3cccc(NC(=O)c4ccc(C#N)cc4)c3)nn2)cc1`, for which, in series [1], the EC50 amounted to 12.9 µM. Further, the selectivity ratio in “in vitro” is more than 1.27. Further, the CC50 in the series with TZM is more than 16.3 µM.

Turning to `COc1ccc(N(C)C(=O)[C@H](Cc2ccccc2)NC(=O)Cn2cc(-c3cccc(NC(=O)c4cccc(OC)c4)c3)nn2)cc1`, the concentration for a half-maximal effect (EC50) in series [1] was more than 16.2 µM. For the same molecule, the 50% cytotoxic concentration (CC50) in the series on TZM was more than 16.2 µM.

For `COc1ccc(N(C)C(=O)[C@H](Cc2ccccc2)NC(=O)Cn2cc(-c3ccc(NC(=O)c4ccc(C)cc4)cc3)nn2)cc1`, the EC50 in series [1] is more than 16.6 µM. Further, the CC50 in the series on TZM was more than 16.6 µM.

With `COc1ccc(N(C)C(=O)[C@H](Cc2ccccc2)NC(=O)Cn2cc(-c3ccccc3NC(=O)c3ccc(C#N)cc3)nn2)cc1`, the EC50 in series [1] was more than 16.3 µM. The half-maximal cytotoxic concentration (CC50) in the series on TZM was more than 16.3 µM.

For the molecule `COc1ccc(N(C)C(=O)[C@H](Cc2ccccc2)NC(=O)Cn2cc(-c3ccccc3NC(C)=O)nn2)cc1`, in series [1], the EC50 amounted to 3.99 µM. In the series “in vitro”, the selectivity ratio was more than 4.76. Also, the CC50 with TZM is more than 19 µM.

Consider `COc1ccc(N(C)C(=O)[C@H](Cc2ccccc2)NC(=O)Cn2cc(-c3cccc(NC(=O)c4ccc(C)cc4)c3)nn2)cc1`, for which the concentration for a half-maximal effect (EC50) in series [1] was more than 16.6 µM. In addition, the 50% cytotoxic concentration (CC50) in the series with TZM was more than 16.6 µM.

Take `COc1ccc(N(C)C(=O)[C@H](Cc2ccccc2)NC(=O)Cn2cc(-c3ccccc3NC(=O)c3ccc(C)cc3)nn2)cc1`: the concentration giving a half-maximal response (EC50) in series [1] is more than 16.6 µM. In the series on TZM, the CC50 is more than 16.6 µM.

For `COc1ccc(N(C)C(=O)[C@H](Cc2ccccc2)NC(=O)Cn2cc(-c3ccccc3NC(=O)c3ccccc3OC)nn2)cc1`, the EC50 in series [1] came to 8.41 µM. Besides, the selectivity ratio in “in vitro” was more than 1.92. The cytotoxic concentration (CC50) in the series with TZM is more than 16.2 µM.

Consider `COc1ccc(C(=O)Nc2ccc(-c3cn(CC(=O)N[C@@H](Cc4ccccc4)C(=O)N(C)c4ccc(OC)cc4)nn3)cc2)cc1`, for which, in series [1], the EC50 is more than 16.2 µM. Moreover, the CC50 in the series with TZM was more than 16.2 µM.

For `COc1ccc(N(C)C(=O)[C@H](Cc2ccccc2)NC(=O)Cn2cc(-c3ccc(NC(=O)c4ccccc4OC)cc3)nn2)cc1`, in series [1], the 50% effective concentration (EC50) is more than 16.2 µM. Moreover, in the series with TZM, the CC50 is more than 16.2 µM.

`COc1ccc(N(C)C(=O)[C@H](Cc2ccccc2)NC(=O)Cn2cc(-c3ccccc3NC(=O)c3ccc(-c4ccccc4)cc3)nn2)cc1`: in series [1], the EC50 was more than 15 µM. The CC50 in the series with TZM is more than 15 µM.

With `COc1ccc(N(C)C(=O)[C@H](Cc2ccccc2)NC(=O)Cn2cc(-c3ccc(NC(=O)c4ccc(C#N)cc4)cc3)nn2)cc1`, the EC50 in series [1] turned out to be 12.4 µM. Further, in the series “in vitro”, the selectivity ratio is more than 1.32. Further, the CC50 in the series with TZM is more than 16.3 µM.

Turning to `COC(=O)c1ccc(C(=O)Nc2ccccc2-c2cn(CC(=O)N[C@@H](Cc3ccccc3)C(=O)N(C)c3ccc(OC)cc3)nn2)cc1`, the 50% effective concentration (EC50) in series [1] is more than 15.5 µM. Further, the 50% cytotoxic concentration (CC50) with TZM was more than 15.5 µM.

Regarding `COc1ccc(N(C)C(=O)[C@H](Cc2ccccc2)NC(=O)Cn2cc(-c3ccccc3NC(=O)c3cccc(OC)c3)nn2)cc1`, the EC50 in series [1] turned out to be 12.8 µM. Besides, the selectivity ratio in “in vitro” was more than 1.27. Also, the CC50 in the series with TZM was more than 16.2 µM.

Consider `COc1ccc(N(C)C(=O)[C@H](Cc2ccccc2)NC(=O)Cn2cc(-c3ccc(NC(=O)c4ccccc4)cc3)nn2)cc1`, for which the EC50 in series [1] stood at 12.9 µM. The selectivity ratio in the series “in vitro” is more than 1.32. The CC50 with TZM is more than 17 µM.

Take `COc1ccc(N(C)C(=O)[C@H](Cc2ccccc2)NC(=O)Cn2cc(-c3ccc(NC(=O)c4ccccc4F)cc3)nn2)cc1`: the EC50 in series [1] came out at 11.9 µM. The selectivity ratio in the series “in vitro” was more than 1.39. The CC50 with TZM is more than 16.5 µM.

As for `COc1ccc(N(C)C(=O)[C@H](Cc2ccccc2)NC(=O)Cn2cc(-c3ccc(NC(=O)c4cccc(OC)c4)cc3)nn2)cc1`, the concentration for a half-maximal effect (EC50) in series [1] was more than 16.2 µM. Besides, in the series with TZM, the CC50 was more than 16.2 µM.

Take `COc1ccc(N(C)C(=O)[C@H](Cc2ccccc2)NC(=O)Cn2cc(-c3cccc(NC(=O)c4ccc(-c5ccccc5)cc4)c3)nn2)cc1`: the EC50 in series [1] is more than 15 µM. The cytotoxic concentration (CC50) with TZM is more than 15 µM.

Take `COC(=O)c1ccc(C(=O)Nc2ccc(-c3cn(CC(=O)N[C@@H](Cc4ccccc4)C(=O)N(C)c4ccc(OC)cc4)nn3)cc2)cc1`: the EC50 in series [1] was more than 15.5 µM. The half-maximal cytotoxic concentration (CC50) in the series on TZM was more than 15.5 µM.

On to `COc1ccc(N(C)C(=O)[C@H](Cc2ccccc2)NC(=O)Cn2cc(-c3cccc(NC(=O)c4ccc(F)cc4)c3)nn2)cc1`, for which the EC50 in series [1] is more than 16.5 µM. Besides, the CC50 with TZM is more than 16.5 µM.

`COc1ccc(N(C)C(=O)[C@H](Cc2ccccc2)NC(=O)Cn2cc(-c3ccc(NC(=O)c4ccc(F)cc4)cc3)nn2)cc1`: the EC50 in series [1] stood at 13 µM. In addition, the selectivity ratio in the series “in vitro” is more than 1.27. In addition, in the series on TZM, the CC50 was more than 16.5 µM.

Regarding `COc1ccc(N(C)C(=O)[C@H](Cc2ccccc2)NC(=O)Cn2cc(-c3ccccc3NC(=O)c3ccc(F)cc3)nn2)cc1`, the EC50 in series [1] amounted to 3.46 µM. Moreover, the selectivity ratio in the series “in vitro” is more than 4.76. Further, the CC50 in the series with TZM is more than 16.5 µM.

Take `COc1ccc(N(C)C(=O)[C@H](Cc2ccccc2)NC(=O)Cn2cc(-c3cccc(NC(=O)c4ccccc4)c3)nn2)cc1`: in series [1], the concentration for a half-maximal effect (EC50) is 12.7 µM. For the same molecule, in “in vitro”, the selectivity ratio was more than 1.33. Moreover, the half-maximal cytotoxic concentration (CC50) with TZM was more than 17 µM.

Consider `COc1ccc(N(C)C(=O)[C@H](Cc2ccccc2)NC(=O)Cn2cc(-c3ccccc3N)nn2)cc1`, for which the EC50 in series [1] amounted to 3.92 µM. Besides, the selectivity ratio in the series “in vitro” is more than 5.27. The CC50 in the series with TZM was more than 20.6 µM.

Take `COc1ccc(N(C)C(=O)[C@H](Cc2ccccc2)NC(=O)Cn2cc(-c3ccc(N)cc3)nn2)cc1`: the EC50 in series [1] turned out to be 13.6 µM. Further, the selectivity ratio in the series “in vitro” is more than 1.51. Besides, the CC50 in the series on TZM was more than 20.6 µM.

For `COC(=O)c1ccc(C(=O)Nc2cccc(-c3cn(CC(=O)N[C@@H](Cc4ccccc4)C(=O)N(C)c4ccc(OC)cc4)nn3)c2)cc1`, the EC50 in series [1] is more than 15.5 µM. Further, in the series with TZM, the CC50 was more than 15.5 µM.

With `COc1ccc(N(C)C(=O)[C@H](Cc2ccccc2)NC(=O)Cn2cc(-c3ccc(NC(=O)c4ccc(-c5ccccc5)cc4)cc3)nn2)cc1`, the EC50 in series [1] worked out at 12.2 µM. In addition, the selectivity ratio in “in vitro” was more than 1.23. In the series with TZM, the 50% cytotoxic concentration (CC50) was more than 15 µM.

In the case of `COc1ccc(N(C)C(=O)[C@H](Cc2ccccc2)NC(=O)Cn2cc(-c3ccc(NC(=O)c4cccc(F)c4)cc3)nn2)cc1`, the EC50 in series [1] came out at 12.7 µM. The selectivity ratio in “in vitro” was more than 1.3. Besides, in the series on TZM, the CC50 is more than 16.5 µM.

For `COc1ccc(C(=O)Nc2ccccc2-c2cn(CC(=O)N[C@@H](Cc3ccccc3)C(=O)N(C)c3ccc(OC)cc3)nn2)cc1`, the EC50 in series [1] is more than 16.2 µM. Besides, the CC50 with TZM is more than 16.2 µM.

As to `COc1ccc(N(C)C(=O)[C@H](Cc2ccccc2)NC(=O)Cn2cc(-c3cccc(NC(C)=O)c3)nn2)cc1`, the EC50 in series [1] worked out at 14.8 µM. For the same molecule, the selectivity ratio in the series “in vitro” was more than 1.28. The 50% cytotoxic concentration (CC50) in the series with TZM was more than 19 µM.

Turning to `COc1ccc(N(C)C(=O)[C@H](Cc2ccccc2)NC(=O)Cn2cc(-c3cccc(NC(=O)c4ccccc4OC)c3)nn2)cc1`, the 50% effective concentration (EC50) in series [1] is more than 16.2 µM. The 50% cytotoxic concentration (CC50) in the series on TZM is more than 16.2 µM.

Turning to `COc1ccc(N(C)C(=O)[C@H](Cc2ccccc2)NC(=O)Cn2cc(-c3cccc(NC(=O)c4ccccc4F)c3)nn2)cc1`, the 50% effective concentration (EC50) in series [1] turned out to be 13.5 µM. Also, the selectivity ratio in “in vitro” is more than 1.22. Further, the half-maximal cytotoxic concentration (CC50) in the series with TZM is more than 16.5 µM.

On to `COc1ccc(N(C)C(=O)[C@H](Cc2ccccc2)NC(=O)Cn2cc(-c3ccc(NC(C)=O)cc3)nn2)cc1`, for which, in series [1], the EC50 was more than 19 µM. Moreover, the CC50 in the series on TZM is more than 19 µM.

For the molecule `COc1ccc(C(=O)Nc2cccc(-c3cn(CC(=O)N[C@@H](Cc4ccccc4)C(=O)N(C)c4ccc(OC)cc4)nn3)c2)cc1`, in series [1], the EC50 was more than 16.2 µM. Further, the 50% cytotoxic concentration (CC50) in the series with TZM is more than 16.2 µM.

(Values after ChEMBL document CHEMBL4765266, “Design, synthesis and structure-activity relationships of 4-phenyl-1H-1,2,3-triazole phenylalanine derivatives as novel HIV-1 capsid inhibitors with promising antiviral activities” (Eur J Med Chem, 2020).)
